ChEMBL document CHEMBL5291721, “A preclinical secondary pharmacology resource illuminates target-adverse drug reaction associations of marketed drugs” (Nat Commun, 2023)
Each block holds one compound with its values, some of them ahead of it.

Key:
Adenosine receptor A1 = target: T1, Adenosine receptor A1 (Homo sapiens, UniProt P30542)
T1 sequence (P30542 whole entry): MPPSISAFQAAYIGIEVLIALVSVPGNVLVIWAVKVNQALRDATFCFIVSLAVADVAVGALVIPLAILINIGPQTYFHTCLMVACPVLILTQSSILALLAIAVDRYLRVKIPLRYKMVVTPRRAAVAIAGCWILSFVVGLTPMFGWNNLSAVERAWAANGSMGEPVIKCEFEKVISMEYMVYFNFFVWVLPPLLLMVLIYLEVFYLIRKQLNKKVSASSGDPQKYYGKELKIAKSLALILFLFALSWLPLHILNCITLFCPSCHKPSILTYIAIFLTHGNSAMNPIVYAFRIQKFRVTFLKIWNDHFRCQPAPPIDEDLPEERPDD

[1] = target: Gamma-aminobutyric acid type B receptor subunit 1 (Homo sapiens, UniProt Q9UBS5)
Estrogen receptor = target: T2, Estrogen receptor (Homo sapiens, UniProt P03372); assay type: functional
T2 sequence (P03372 whole entry): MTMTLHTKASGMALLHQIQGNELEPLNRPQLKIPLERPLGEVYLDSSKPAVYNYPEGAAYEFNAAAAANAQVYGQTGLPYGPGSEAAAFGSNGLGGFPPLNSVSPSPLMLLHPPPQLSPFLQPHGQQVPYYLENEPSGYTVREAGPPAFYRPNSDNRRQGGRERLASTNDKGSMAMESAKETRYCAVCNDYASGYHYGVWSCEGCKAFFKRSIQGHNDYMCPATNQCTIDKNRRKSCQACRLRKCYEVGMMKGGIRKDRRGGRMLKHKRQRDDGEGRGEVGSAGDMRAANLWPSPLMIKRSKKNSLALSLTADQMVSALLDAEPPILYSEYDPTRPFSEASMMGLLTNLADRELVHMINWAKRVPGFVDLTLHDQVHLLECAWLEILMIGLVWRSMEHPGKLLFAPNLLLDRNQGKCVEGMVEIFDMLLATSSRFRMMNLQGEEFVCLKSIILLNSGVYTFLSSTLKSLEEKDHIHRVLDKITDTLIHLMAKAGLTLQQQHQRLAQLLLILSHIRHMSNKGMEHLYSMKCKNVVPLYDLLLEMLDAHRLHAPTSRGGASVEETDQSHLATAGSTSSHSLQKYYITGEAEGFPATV

Androgen receptor = target: T3, Androgen receptor (Rattus norvegicus, UniProt P15207); assay type: functional
T3 sequence (P15207 whole entry): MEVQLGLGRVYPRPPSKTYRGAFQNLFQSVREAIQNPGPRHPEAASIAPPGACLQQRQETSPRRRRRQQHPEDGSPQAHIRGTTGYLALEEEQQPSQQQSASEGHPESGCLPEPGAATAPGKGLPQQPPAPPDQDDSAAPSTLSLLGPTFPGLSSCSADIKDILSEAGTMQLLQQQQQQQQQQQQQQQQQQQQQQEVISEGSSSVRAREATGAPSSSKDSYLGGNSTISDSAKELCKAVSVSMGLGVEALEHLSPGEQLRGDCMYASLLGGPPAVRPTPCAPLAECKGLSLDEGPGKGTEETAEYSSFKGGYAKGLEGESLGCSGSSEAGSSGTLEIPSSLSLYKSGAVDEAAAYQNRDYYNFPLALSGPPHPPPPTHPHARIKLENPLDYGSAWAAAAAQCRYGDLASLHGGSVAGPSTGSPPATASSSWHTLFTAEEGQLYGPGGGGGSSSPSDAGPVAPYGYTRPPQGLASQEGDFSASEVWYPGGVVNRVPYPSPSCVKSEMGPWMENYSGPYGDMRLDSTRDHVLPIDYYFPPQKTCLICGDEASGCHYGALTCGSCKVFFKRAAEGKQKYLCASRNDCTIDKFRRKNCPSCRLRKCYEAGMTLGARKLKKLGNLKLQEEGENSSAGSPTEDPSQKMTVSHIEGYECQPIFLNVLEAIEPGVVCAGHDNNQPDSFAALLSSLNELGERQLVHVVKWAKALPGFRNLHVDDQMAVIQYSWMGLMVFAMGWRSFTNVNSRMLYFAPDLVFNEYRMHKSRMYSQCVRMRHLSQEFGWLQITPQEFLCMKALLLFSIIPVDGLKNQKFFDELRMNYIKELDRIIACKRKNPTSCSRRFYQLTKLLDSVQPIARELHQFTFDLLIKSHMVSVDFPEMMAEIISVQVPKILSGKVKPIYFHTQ

[2] = target: Sodium channel protein type 5 subunit alpha (Homo sapiens, UniProt Q14524); assay type: functional, cell-based
[3] = target: 5-hydroxytryptamine receptor 7 (Homo sapiens, UniProt P34969)
Cannabinoid receptor 1 = Cannabinoid receptor 1 (Homo sapiens, UniProt P21554); assay type: functional
[4] = target: 5-hydroxytryptamine receptor 6 (Homo sapiens, UniProt P50406)
Acetylcholinesterase = Acetylcholinesterase (Homo sapiens, UniProt P22303); assay type: functional
Thromboxane A2 receptor [5] = target: T4, Thromboxane A2 receptor (Homo sapiens, UniProt P21731); assay type: functional
T4 sequence (P21731 whole entry): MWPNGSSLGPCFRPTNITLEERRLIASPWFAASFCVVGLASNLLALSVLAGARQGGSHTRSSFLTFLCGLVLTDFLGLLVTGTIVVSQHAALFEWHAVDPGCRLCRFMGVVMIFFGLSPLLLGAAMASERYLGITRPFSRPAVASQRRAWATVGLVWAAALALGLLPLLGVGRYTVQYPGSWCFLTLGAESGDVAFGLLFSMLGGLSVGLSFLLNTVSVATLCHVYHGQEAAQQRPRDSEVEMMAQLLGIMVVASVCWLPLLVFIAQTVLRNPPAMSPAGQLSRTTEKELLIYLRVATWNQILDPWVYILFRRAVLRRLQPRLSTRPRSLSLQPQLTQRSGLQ

Thromboxane A2 receptor [6] = target: T4, Thromboxane A2 receptor; assay type: functional, cell-based
Note: assay procedure not described here.

Cannabinoid receptor 1, sequence (P21554 whole entry): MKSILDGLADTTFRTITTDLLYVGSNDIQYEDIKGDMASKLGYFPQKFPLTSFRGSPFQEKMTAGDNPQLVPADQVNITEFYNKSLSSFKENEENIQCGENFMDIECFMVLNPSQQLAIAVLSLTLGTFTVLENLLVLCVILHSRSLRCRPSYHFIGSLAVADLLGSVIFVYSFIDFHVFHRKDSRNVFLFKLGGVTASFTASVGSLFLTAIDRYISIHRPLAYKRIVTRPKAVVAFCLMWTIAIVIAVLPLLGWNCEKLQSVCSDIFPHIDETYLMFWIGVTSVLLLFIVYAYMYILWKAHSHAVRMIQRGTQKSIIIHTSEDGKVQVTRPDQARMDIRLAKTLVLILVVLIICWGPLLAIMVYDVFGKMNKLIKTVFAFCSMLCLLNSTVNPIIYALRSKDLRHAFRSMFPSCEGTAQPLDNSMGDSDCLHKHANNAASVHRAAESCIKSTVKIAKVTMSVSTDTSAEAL
5-hydroxytryptamine receptor 7, sequence (P34969 whole entry): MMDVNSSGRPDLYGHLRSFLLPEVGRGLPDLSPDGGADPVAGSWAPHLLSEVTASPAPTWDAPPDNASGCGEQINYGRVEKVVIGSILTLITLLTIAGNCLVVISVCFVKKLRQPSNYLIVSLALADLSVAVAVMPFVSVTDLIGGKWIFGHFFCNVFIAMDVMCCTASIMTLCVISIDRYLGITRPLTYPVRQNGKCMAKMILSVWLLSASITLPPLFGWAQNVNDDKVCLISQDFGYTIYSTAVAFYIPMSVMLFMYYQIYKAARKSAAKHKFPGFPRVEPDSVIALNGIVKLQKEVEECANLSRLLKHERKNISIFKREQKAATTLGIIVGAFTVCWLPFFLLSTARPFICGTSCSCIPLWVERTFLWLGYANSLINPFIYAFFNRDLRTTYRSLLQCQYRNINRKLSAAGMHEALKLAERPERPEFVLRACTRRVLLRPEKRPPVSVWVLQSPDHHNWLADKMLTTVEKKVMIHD
5-hydroxytryptamine receptor 6, sequence (P50406 whole entry): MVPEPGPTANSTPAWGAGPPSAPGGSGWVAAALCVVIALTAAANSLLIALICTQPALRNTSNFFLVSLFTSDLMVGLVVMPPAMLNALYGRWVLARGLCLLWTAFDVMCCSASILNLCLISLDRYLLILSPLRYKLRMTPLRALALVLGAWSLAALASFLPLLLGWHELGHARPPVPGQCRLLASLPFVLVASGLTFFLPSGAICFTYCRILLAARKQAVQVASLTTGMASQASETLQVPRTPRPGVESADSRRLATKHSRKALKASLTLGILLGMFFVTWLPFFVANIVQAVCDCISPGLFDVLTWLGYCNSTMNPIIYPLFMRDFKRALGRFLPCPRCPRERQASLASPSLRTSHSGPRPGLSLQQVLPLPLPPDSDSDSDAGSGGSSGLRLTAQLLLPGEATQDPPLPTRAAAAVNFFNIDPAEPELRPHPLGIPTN
Acetylcholinesterase, sequence (P22303 whole entry): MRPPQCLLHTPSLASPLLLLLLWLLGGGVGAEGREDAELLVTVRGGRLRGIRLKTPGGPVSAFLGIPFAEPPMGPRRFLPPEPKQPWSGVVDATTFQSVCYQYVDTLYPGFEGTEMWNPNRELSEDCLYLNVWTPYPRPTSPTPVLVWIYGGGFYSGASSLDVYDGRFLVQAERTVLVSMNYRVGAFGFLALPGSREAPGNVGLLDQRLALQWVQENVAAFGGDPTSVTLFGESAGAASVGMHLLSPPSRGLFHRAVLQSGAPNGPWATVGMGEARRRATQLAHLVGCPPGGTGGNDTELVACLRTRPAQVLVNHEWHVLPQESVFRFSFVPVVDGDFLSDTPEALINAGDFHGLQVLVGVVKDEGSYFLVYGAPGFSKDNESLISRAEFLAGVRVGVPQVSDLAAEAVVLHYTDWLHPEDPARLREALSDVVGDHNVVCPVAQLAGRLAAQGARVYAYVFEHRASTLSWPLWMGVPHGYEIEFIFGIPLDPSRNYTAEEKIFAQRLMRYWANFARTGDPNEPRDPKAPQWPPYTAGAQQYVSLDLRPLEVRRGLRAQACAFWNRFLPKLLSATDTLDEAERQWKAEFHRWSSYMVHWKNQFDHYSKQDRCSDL
Gamma-aminobutyric acid type B receptor subunit 1, sequence (Q9UBS5 whole entry): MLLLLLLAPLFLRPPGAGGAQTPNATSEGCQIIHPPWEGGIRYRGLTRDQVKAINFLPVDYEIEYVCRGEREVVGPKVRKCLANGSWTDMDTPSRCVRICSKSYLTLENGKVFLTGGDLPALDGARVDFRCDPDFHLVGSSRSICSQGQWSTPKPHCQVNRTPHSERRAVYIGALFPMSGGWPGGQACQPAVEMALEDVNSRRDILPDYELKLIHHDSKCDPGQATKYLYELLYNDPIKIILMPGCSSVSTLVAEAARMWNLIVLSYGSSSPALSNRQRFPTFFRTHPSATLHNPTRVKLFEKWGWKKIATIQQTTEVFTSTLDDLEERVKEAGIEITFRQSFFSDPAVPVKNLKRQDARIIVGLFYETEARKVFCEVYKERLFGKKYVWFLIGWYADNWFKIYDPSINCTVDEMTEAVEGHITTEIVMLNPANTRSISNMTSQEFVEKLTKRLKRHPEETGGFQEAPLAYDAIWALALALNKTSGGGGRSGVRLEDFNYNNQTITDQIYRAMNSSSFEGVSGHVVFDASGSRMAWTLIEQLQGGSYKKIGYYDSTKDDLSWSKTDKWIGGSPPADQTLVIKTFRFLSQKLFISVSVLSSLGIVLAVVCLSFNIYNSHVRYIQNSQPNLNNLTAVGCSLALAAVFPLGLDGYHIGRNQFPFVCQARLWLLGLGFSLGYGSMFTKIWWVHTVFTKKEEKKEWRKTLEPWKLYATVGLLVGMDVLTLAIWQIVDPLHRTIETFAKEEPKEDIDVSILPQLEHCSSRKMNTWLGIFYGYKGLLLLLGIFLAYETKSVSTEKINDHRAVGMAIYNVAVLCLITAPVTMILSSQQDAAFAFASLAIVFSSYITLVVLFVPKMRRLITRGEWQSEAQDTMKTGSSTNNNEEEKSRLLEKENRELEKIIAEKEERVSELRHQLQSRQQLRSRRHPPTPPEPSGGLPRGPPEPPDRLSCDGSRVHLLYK
Sodium channel protein type 5 subunit alpha, sequence (Q14524 whole entry): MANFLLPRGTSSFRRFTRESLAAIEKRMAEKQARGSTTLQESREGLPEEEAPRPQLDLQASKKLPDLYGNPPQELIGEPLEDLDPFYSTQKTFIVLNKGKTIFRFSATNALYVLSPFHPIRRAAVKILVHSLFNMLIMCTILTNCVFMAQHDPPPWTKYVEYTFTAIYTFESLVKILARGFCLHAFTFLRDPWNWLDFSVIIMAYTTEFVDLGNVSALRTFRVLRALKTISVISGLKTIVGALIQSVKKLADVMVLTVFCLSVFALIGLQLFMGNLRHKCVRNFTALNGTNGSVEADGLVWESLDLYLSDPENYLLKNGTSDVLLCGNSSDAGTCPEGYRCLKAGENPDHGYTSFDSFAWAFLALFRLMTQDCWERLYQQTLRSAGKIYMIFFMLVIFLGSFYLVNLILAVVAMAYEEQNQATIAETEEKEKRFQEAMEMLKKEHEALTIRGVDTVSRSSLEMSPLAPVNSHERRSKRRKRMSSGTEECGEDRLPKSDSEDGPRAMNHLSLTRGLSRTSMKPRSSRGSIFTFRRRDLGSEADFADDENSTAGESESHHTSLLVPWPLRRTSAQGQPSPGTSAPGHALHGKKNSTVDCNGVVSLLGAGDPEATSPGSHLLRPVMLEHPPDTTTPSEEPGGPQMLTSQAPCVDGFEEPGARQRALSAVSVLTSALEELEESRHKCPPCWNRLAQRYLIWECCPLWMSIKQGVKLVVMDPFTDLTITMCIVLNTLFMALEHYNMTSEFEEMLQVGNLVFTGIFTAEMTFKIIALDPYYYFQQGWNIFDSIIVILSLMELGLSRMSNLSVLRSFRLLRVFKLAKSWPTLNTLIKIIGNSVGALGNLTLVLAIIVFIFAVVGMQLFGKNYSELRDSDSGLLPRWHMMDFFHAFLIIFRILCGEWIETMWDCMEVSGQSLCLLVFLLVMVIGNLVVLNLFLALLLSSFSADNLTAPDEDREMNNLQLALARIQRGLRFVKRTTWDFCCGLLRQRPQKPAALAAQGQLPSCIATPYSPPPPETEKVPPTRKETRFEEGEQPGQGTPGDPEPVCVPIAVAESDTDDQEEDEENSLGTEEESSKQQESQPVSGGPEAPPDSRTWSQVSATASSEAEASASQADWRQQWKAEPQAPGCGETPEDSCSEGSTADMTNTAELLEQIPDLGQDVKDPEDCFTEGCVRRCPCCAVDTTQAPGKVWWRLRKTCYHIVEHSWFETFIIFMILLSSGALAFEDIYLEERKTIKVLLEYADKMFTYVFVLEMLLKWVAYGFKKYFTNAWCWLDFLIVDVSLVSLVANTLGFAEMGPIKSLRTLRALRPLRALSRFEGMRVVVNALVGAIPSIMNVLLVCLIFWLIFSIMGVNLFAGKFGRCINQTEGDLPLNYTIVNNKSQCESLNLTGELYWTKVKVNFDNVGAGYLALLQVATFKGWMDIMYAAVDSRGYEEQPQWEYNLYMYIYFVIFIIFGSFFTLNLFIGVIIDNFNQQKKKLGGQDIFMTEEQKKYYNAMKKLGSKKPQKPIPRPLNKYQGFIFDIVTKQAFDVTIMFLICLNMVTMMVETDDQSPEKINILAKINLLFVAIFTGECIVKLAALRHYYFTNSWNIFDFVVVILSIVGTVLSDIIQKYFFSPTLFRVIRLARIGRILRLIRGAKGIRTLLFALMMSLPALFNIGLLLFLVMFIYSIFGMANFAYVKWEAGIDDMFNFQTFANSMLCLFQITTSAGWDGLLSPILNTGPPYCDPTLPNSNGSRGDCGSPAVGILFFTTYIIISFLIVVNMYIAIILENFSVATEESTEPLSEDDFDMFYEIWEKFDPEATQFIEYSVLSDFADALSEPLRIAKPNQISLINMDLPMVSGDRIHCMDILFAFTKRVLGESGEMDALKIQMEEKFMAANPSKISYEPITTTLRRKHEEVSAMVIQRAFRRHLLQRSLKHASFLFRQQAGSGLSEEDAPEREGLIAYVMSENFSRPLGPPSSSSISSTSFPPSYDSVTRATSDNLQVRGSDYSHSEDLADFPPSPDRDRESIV

Compound: CC1(C)NC(=O)N(c2ccc([N+](=O)[O-])c(C(F)(F)F)c2)C1=O [NILUTAMIDE]
AC50 (Adenosine receptor A1): > 30 µM

AC50 [1]: > 10 µM
AC50 (Estrogen receptor): > 30 µM
Compound: CCCN1C[C@H](CSC)C[C@@H]2c3cccc4[nH]cc(c34)C[C@H]21 [PERGOLIDE]

Compound: CC[C@H]1[C@@H](O)[C@@H]2[C@H](CC[C@]3(C)[C@@H]([C@H](C)CCC(=O)O)CC[C@@H]23)[C@@]2(C)CC[C@@H](O)C[C@@H]12 [OBETICHOLIC ACID]
AC50 (Androgen receptor): > 30 µM
AC50 [2]: > 30 µM

AC50 [3]: > 10 µM
AC50 (Cannabinoid receptor 1): > 10 µM
AC50 [4]: > 10 µM
Compound: CN(C)CCC(c1ccc(Cl)cc1)c1ccccn1 (stereo not given) [CHLORPHENIRAMINE]
AC50 [2]: > 30 µM

Compound: CCC1=C(C)CN(C(=O)NCCc2ccc(S(=O)(=O)NC(=O)N[C@H]3CC[C@H](C)CC3)cc2)C1=O [GLIMEPIRIDE]
AC50 (Adenosine receptor A1): > 30 µM

Compound: CO[C@H]1C[C@@H]2CC[C@@H](C)[C@@](O)(O2)C(=O)C(=O)N2CCCC[C@H]2C(=O)O[C@H]([C@H](C)C[C@@H]2CC[C@@H](O)[C@H](OC)C2)CC(=O)[C@H](C)/C=C(\C)[C@@H](O)[C@@H](OC)C(=O)[C@H](C)C[C@H](C)/C=C/C=C/C=C/1C [SIROLIMUS]
AC50 [1]: > 10 µM

Compound: CCc1oc2ccccc2c1C(=O)c1cc(I)c(O)c(I)c1 [BENZIODARONE]
AC50 (Adenosine receptor A1): 18.2 µM

AC50 [1]: > 10 µM
AC50 [3]: > 10 µM
AC50 (Cannabinoid receptor 1): > 10 µM
AC50 [4]: > 10 µM
Compound: CCC(C)n1ncn(-c2ccc(N3CCN(c4ccc(OCC5COC(Cn6cncn6)(c6ccc(Cl)cc6Cl)O5)cc4)CC3)cc2)c1=O (stereo not given) [ITRACONAZOLE]

Compound: c1cnc(N2CCN(Cc3ccc4c(c3)OCO4)CC2)nc1 [PIRIBEDIL]
AC50 (Acetylcholinesterase): > 30 µM
AC50 (Thromboxane A2 receptor [5]): > 30 µM
AC50 (Estrogen receptor): > 30 µM
AC50 (Thromboxane A2 receptor [6]): > 30 µM

Compound: CS(=O)(=O)c1ccc(C2=C(c3ccccc3)C(=O)OC2)cc1 [ROFECOXIB]
AC50 [1]: > 10 µM
AC50 [3]: > 10 µM
AC50 (Cannabinoid receptor 1): > 10 µM
AC50 [4]: > 10 µM

Compound: Cc1cn([C@H]2C[C@H](N=[N+]=[N-])[C@@H](CO)O2)c(=O)[nH]c1=O [ZIDOVUDINE]
AC50 [1]: > 10 µM
AC50 [2]: > 30 µM

Compound: O=C(OCC(O)CO)c1ccccc1Nc1ccnc2cc(Cl)ccc12 (stereo not given) [GLAFENINE]
AC50 (Androgen receptor): > 30 µM
AC50 (Acetylcholinesterase): > 30 µM
AC50 (Thromboxane A2 receptor [5]): > 30 µM
AC50 (Estrogen receptor): > 30 µM
AC50 (Thromboxane A2 receptor [6]): 9.8 µM

Compound: CC(C)C[C@H]1C(=O)N2CCC[C@H]2[C@]2(O)O[C@](NC(=O)[C@@H]3C=C4c5cccc6[nH]c(Br)c(c56)C[C@H]4N(C)C3)(C(C)C)C(=O)N12 [BROMOCRIPTINE]
AC50 (Acetylcholinesterase): > 30 µM
AC50 (Thromboxane A2 receptor [5]): > 30 µM
AC50 (Thromboxane A2 receptor [6]): > 30 µM

Compound: CC[C@H]1OC(=O)[C@H](C)[C@@H](O[C@H]2C[C@@](C)(OC)[C@@H](O)[C@H](C)O2)[C@H](C)[C@@H](O[C@@H]2O[C@H](C)C[C@H](N(C)C)[C@H]2O)[C@](C)(O)C[C@@H](C)CN(C)[C@H](C)[C@@H](O)[C@]1(C)O [AZITHROMYCIN]
AC50 [1]: > 10 µM
AC50 [3]: > 10 µM
AC50 (Cannabinoid receptor 1): > 10 µM
AC50 (Adenosine receptor A1): > 30 µM
AC50 [4]: > 10 µM
AC50 [2]: > 30 µM

Compound: COCCCN1CCC(NC(=O)c2cc(Cl)c(N)c3c2OCC3)CC1 [PRUCALOPRIDE]
AC50 (Adenosine receptor A1): > 30 µM

Compound: CCOC(=O)[C@H](CCc1ccccc1)N[C@@H](C)C(=O)N1[C@H](C(=O)O)C[C@@H]2CCC[C@@H]21
AC50 [2]: > 30 µM

AC50 (Estrogen receptor): > 30 µM
Compound: O=C1Nc2ccc(Cl)cc2[C@@](C#CC2CC2)(C(F)(F)F)O1 [EFAVIRENZ]

Compound: O=C(Cc1ccc(-c2ccccc2)cc1)Nc1ccccn1 [DIFENPIRAMIDE]
AC50 (Adenosine receptor A1): > 30 µM

Compound: O=C(CCNNC(=O)c1ccncc1)NCc1ccccc1 [NIALAMIDE]
AC50 [2]: > 50 µM
